Assay results reported in PubChem BioAssay (NCI).
Where “and” joins values, the source holds several entries; their conditions need not be identical. Equal entries are not always repeated.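 48-hour exposure; five concentrations; linearly interpolated endpoints. GI50 = concentration required for 50% inhibition of growth. TGI: concentration producing complete growth inhibition.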

Columns and labels:
Assay in all cases: NCI anticancer screen, dose series, 48 h
[1] = tested on: COLO 205 colon
[2] = tested on: HOP-62 NSCLC
[3] = tested on: HS 578T breast
[4] = tested on: LOX IMVI melanoma
[5] = tested on: MALME-3M melanoma
[6] = tested on: MDA-MB-231 breast
[7] = tested on: NCI-H23 lung
[8] = tested on: SF-295 CNS
[9] = tested on: SN12C renal
[10] = tested on: SNB-19 CNS

SMILES	GI50 [1]	TGI [1]	GI50 [2]	TGI [2]	GI50 [3]	TGI [3]	GI50 [4]	TGI [4]	GI50 [5]	TGI [5]	GI50 [6]	TGI [6]	GI50 [7]	TGI [7]	GI50 [8]	TGI [8]	GI50 [9]	TGI [9]	GI50 [10]	TGI [10]
COc1cc2c3c(n(CCCN=[N+]=[N-])c(=O)c2cc1OC)-c1ccc(N(C)C)cc1C3=O	> 100 µM	> 100 µM	> 100 µM	> 100 µM	> 100 µM	> 100 µM	> 100 µM	> 100 µM	> 100 µM	> 100 µM	> 100 µM	> 100 µM	> 100 µM	> 100 µM	> 100 µM	> 100 µM	> 100 µM	> 100 µM	> 100 µM	> 100 µM
CC(C)COC(=O)c1ccc2[nH]c(O)c(C=Nc3ccc(S(N)(=O)=O)cc3)c2c1	0.532 µM	1.91 µM	1.58 µM	4.84 µM	1.45 µM	6.07 µM	0.666 µM	4.06 µM	4.97 µM	10.9 µM	0.915 µM	6.76 µM	1.33 µM	5.11 µM	1.77 µM	8.46 µM	1.21 µM	7.94 µM	1.93 µM	13.7 µM
CC(=O)Oc1ccc(C(c2ccc(OC(C)=O)cc2)c2ccccn2)cc1	0.463 µM	36.5 µM and > 69.4 µM	> 58.3 µM	> 100 µM	–	0.677 µM and 0.638 µM	52.7 µM	> 100 µM	29.4 µM	> 100 µM	48 µM	> 100 µM	5.08 µM	> 100 µM	37.1 µM	> 100 µM	0.558 µM	> 100 µM	–	> 100 µM
CCN(CC)CCSCCCNc1c2ccc(Cl)cc2nc2ccc(OC)cc12	0.8 µM	2.25 µM	0.558 µM	2.21 µM	2.12 µM	5.28 µM	0.337 µM	1.34 µM	2.03 µM	3.73 µM	1.01 µM	3 µM	1.32 µM	3.28 µM	1.13 µM	2.76 µM	1.04 µM	3.48 µM	1.25 µM	4.88 µM
COc1ccc(OC)c(Nc2nc(-c3c(C)nc4sccn34)cs2)c1	> 100 µM	> 100 µM	8.46 µM	63.4 µM	5.3 µM	> 100 µM	> 100 µM	> 100 µM	> 100 µM	> 100 µM	> 100 µM	> 100 µM	51.1 µM	> 100 µM	41.4 µM	> 100 µM	> 100 µM	> 100 µM	41.4 µM	> 100 µM
COc1ccc(C2=CC(c3ccc(OC)c(OC)c3)c3c(c4ccccc4oc3=O)O2)cc1OC (stereo not drawn)	2.04 µM	> 24.2 µM	2.2 µM	> 100 µM	0.957 µM	> 26.9 µM	4.22 µM	> 100 µM	> 100 µM	> 100 µM	3.46 µM	> 51.4 µM	4.91 µM	> 100 µM	0.442 µM	> 100 µM	4.39 µM	> 100 µM	1.99 µM	> 77.3 µM
OCCN1CCN(CC/C=C2\c3ccccc3Sc3ccc(Cl)cc32)CC1	1.65 µM and 1.59 µM	3.24 µM and 3 µM	4.07 µM and 2.62 µM	14.5 µM and 7.04 µM	2.43 µM and 2.25 µM	7.02 µM and 7.94 µM	1.96 µM and 1.65 µM	3.89 µM and 3.13 µM	1.94 µM	3.8 µM	2.62 µM and 2.09 µM	12 µM and 6.46 µM	10.7 µM and 7.72 µM	28.2 µM and 21.4 µM	1.79 µM and 2.17 µM	5.07 µM and 5.33 µM	7.12 µM and 7.01 µM	27.4 µM and 20.4 µM	2.45 µM and 4.49 µM	6.43 µM and 10.4 µM
CC(Br)C(=O)Nc1ccc(C(=O)O)c(O)c1 (stereo not drawn)	–	> 100 µM	–	> 100 µM	–	> 100 µM	–	> 100 µM	–	42.1 µM	–	> 100 µM	–	68.9 µM	–	> 100 µM	–	66.1 µM	–	> 100 µM
O=C1OC(CN2CCOCC2)CN1/N=C/c1ccc([N+](=O)[O-])o1 (stereo not drawn)	–	> 100 µM	–	> 100 µM	–	> 100 µM	–	59.6 µM	–	46.6 µM	–	> 100 µM	–	53.9 µM	–	> 100 µM	–	92 µM	–	> 100 µM
c1ccc(CNc2nc(Nc3ccccc3)nc3ccccc23)cc1	1.89 µM	3.77 µM	2.3 µM	5.17 µM	2.17 µM	6.01 µM	1.88 µM	3.4 µM	1.7 µM	3.38 µM	1.58 µM	3.12 µM	2.17 µM	9.25 µM	1.73 µM	3.77 µM	1.73 µM	3.7 µM	3.16 µM	14.6 µM
Cc1cc(OCc2nnc3n2N=C(c2ccc(Cl)cc2Cl)CS3)ccc1Cl	60.2 µM	> 100 µM	> 100 µM	> 100 µM	37.9 µM	> 100 µM	36.3 µM	> 100 µM	68.9 µM	> 100 µM	30.8 µM	90.4 µM	61 µM	> 100 µM	28.4 µM	> 100 µM	38.7 µM	> 100 µM	97.2 µM	> 100 µM
Cn1cnc([N+](=O)[O-])c1Sc1ncn[nH]1	28.4 µM	> 100 µM	> 100 µM	> 100 µM	52.8 µM	> 100 µM	> 100 µM	> 100 µM	23.9 µM	> 100 µM	> 100 µM	> 100 µM	99.5 µM	> 100 µM	> 100 µM	> 100 µM	> 100 µM	> 100 µM	> 100 µM	> 100 µM
COc1ccc2nc(NC(=O)c3cccnc3Nc3cc(OC)c(OC)c(OC)c3)sc2c1	17.4 µM	51.5 µM	6.33 µM	22.3 µM	5.77 µM	30.9 µM	15.7 µM	42.2 µM	10.1 µM	24.6 µM	5.62 µM	21.7 µM	5.38 µM	22.7 µM	8.34 µM	27.1 µM	11.7 µM	27.5 µM	15 µM	31.7 µM
CCOC(=O)c1c(C)c(C)n2c1NC(=O)C2	–	> 100 µM	–	> 100 µM	–	70 µM	–	> 100 µM	–	> 85.7 µM	–	> 100 µM	–	> 68.5 µM	–	> 100 µM	–	> 100 µM	–	> 100 µM
CN(C)CCN1C(=O)c2cccc3cccc(c23)C1=O	7.04 µM	> 25 µM	> 25 µM	> 25 µM	> 25 µM	> 25 µM	10.6 µM	> 25 µM	17.6 µM	> 25 µM	> 25 µM	> 25 µM	> 25 µM	> 25 µM	11.1 µM	> 25 µM	12.7 µM	> 25 µM	22.3 µM	> 25 µM
Cn1c(=O)c(Oc2ccc(F)cc2F)cc2cnc(NCCS(C)(=O)=O)nc21	> 25 µM	> 25 µM	> 25 µM	> 25 µM	> 25 µM	> 25 µM	> 25 µM	> 25 µM	> 25 µM	> 25 µM	> 25 µM	> 25 µM	> 25 µM	> 25 µM	> 25 µM	> 25 µM	> 25 µM	> 25 µM	> 25 µM	> 25 µM
